The numbers were not newly measured in US9814693B2 (priority 2012, dated 2017), which cites them from elsewhere.

Structures are written as SMILES. Counter-ions that a name gives are not always drawn.

For one data set, the system named is CML. The settings on record: first-line.
Data set [1] concerns mice. To be noted: after the start of treatment (time not given); these and previous studies.
The test system of data set [2] is erythrocytes. To be noted: fresh whole dog blood, 37° C., within 2 hours.
A further data set concerns NK/Ly tumor. To be noted: NK/Ly tumor-bearing mice.
The conditions of data set [3]: solution in distilled water.
Another data set has as its system S180 ascites tumors. To be noted: S180 ascites tumor.
The subject of data set [4] is Ehrlich ascites tumor cells.
The next data set concerns L1210 leukemia. To be noted: mice, early form of L1210 leukemia, various doses.
The conditions of data set [5]: normal brain and intracerebral tumor tissue.
Data set [6] deals with rabbits. The settings on record: i.v. 2.5 and 0.25 mg/kg every second day for 30 or 70 days.
The subject of data set [7] is Chinese hamster cell cultures. The settings on record: low doses, in vitro.
Data set [8] has as its system erythrocytes.
The test system of data set [9] is intracerebral murine ependymoblastomas. The settings on record: intracerebral tumors.
Data set [10] concerns rabbits.
The test system of a further data set is Barle's L cells. The settings on record: percentage of control cloning efficiency.
For data set [11], the system named is mice.
The conditions of data set [12]: compared with all the diepoxyhexitols.
For data set [13] the following is noted: in vivo.
Assay in data set [14]: not given
This is another data set of the same source.

Take `Cc1ccc(NC(=O)c2ccc(CN3CCN(C)CC3)cc2)cc1Nc1nccc(-c2cccnc2)n1` [Gleevec, imatinib mesylate]: in the data set with CML (CML patients, following two years), the “estimated overall survival rate” value is recorded as 91%. The “patients with cytogenetic response” value with CML is listed as “up to 60%”. In the data set with CML (following two years), the “patients free of disease worsening” value is around 90%.

As for `OC(C1CO1)C(O)C1CO1` (centres unmarked) [dianhydrogalactitol, 1,2:5,6-Dianhydrogalactitol], in the data set on mice [1], the “drug accumulation of five cytostatic hexitol derivatives” value (shortened to “drug accumulation”) is 0%. In addition, the “incubated dose bound to erythrocytes” value in the data set with erythrocytes [2] is on record as 37.7%. The increase in lifespan in the data set with NK/Ly tumor is 200%. Also, in the data set with HeLa cell cultures (100-μg dose), the cytomorphologic effect entry is “complete cellular disintegration”. The “local effect of the solution” value in [3] was “slight, locally irritating effect”. Moreover, the “animals recovered after treatment” value with S180 ascites tumors and with Ehrlich ascites tumor was “Fifty” each time. In addition, the “dose dependence of distribution and elimination” value (3 and 6 mg/kg, one dog) was “dose-independent”. The “mean Cl” value (dogs, i.v. 3 and 6 mg/kg) is 23.4 mL/min/kg. Under “dogs, i.v. 3 and 6 mg/kg”, the “mean value of V” value was 0.462 L/kg. In addition, the “mean value of VDss” value (dogs, i.v. 3 and 6 mg/kg) is 0.779 L/kg. For the setting “dogs, i.v. 3 and 6 mg/kg, intact drug in plasma”, the “mean t1,2,β” value is given as 26.6 min. Further, the tumor weight inhibition in the data set with Ehrlich ascites tumor (0.75 mg/kg (one-sixtieth of the LD50)) is given as 68%. In addition, in data set [4] (Ehrlich ascites tumor cells), the “multinucleated cells, compared with mannitol mustard or dibromodulcitol” value is “more frequently”. Besides, the “time of earliest detectable ultrastructural effects” value in data set [4] (larger dose (7.5 mg/kg i.p.), after administration) was 3 h. For the same molecule, the “time at which ultrastructural effect could be detected” value in data set [4] (smaller doses (3.7 mg/kg i.p.), after treatment) was 72 to 96 h. Besides, the prolongation of lifespan in the data set with L1210 leukemia is given as 50%-200%. The blood-brain barrier passage result in data set [5] is listed as “rapidly crosses the blood-brain barrier”. Moreover, the most marked alterations result in the data set on rabbits [6] was “cell population reductions (especially of the myeloid elements) in the bone marrow”. Moreover, the chromosome aberrations result in data set [7] is on record as “induced characteristic chromosome aberrations”. Besides, in the data set on rats (single 10, 5 or 2.5 mg/kg dose, 1 hour to 21 days), the “changes in the parenchymal organs” value is “No changes”. For the same molecule, the LD50 with rats (single dose) is recorded as 10 mg/kg; in the data set with rabbits [10] (single i.v. dose) it was 14.0 mg/kg; in the data set on mice [11] (mice, single dose, survivors observed 21 days) it was 15 mg/kg. The “initially present drug remaining with the erythrocytes” value with erythrocytes [8] (after dialysis for 14 hours) is reported as 36%. Further, in the data set on erythrocytes [8] (within 2 hours, pH 7.4, 37° C.), the “initially erythrocyte-bound drug lost to the dialysis medium” value is 50%. Also, the “death, time after injection” value with beagle dogs (dog 1, 6 mg/kg i.v. on day 8 after 3 mg/kg on day 1) is listed as 7 days. Besides, the “death, time after administration” value with beagle dogs (dog 2, 6 mg/kg i.v.) was 12 days. For the same molecule, in the data set on beagle dogs (dog, i.v.), the “doses at which toxicity occurs” value was “greater than 3 mg/kg”. The “findings associated with death” value with beagle dogs (dogs given 6 mg/kg i.v.) is “bone marrow hypoplasia, leucopenia, and thrombocytopenia”. Further, the antitumor activity result in [9] was “activity”. Moreover, the “effect on platelet counts” value with rabbits [10] (repeated injections of smaller doses (17×2.5, 17×0.25 mg/kg i.v.)) is “no changes in platelet counts”. The effect on platelets entry in the data set on rabbits [10] (single 14.0 mg/kg i.v.) was “persistent thromobocytopenia”. Moreover, the “decrease in the granulocyte count” value in the data set on rabbits [10] (single 14.0 mg/kg i.v., disappeared in 30 days) was 50%. The “concentration giving 50 percent survival (cloning efficiency)” value in the data set on Barle's L cells was 4 µg/mL. The “atrophy of the spleen and lymph nodes, compared with dibromodulcitol” value in the data set on mice [11] (acute toxicity) is given as “more marked”. Moreover, the “time of death, compared with dibromodulcitol” value in the data set on mice [11] (acute toxicity) is “died earlier”. In addition, in the data set on mice [11] (animals treated with the LD50 (15 mg/kg)), the “symptoms at the LD50” value was “gastrointestinal symptoms (including weight loss) were dominant”. In addition, in the data set on mice [11] (mice, single dose), the LD80 is listed as 18 mg/kg. Also, the chemical stability entry in data set [12] is “most chemically stable”.

`O[C@H]([C@H](O)[C@@H](O)CBr)[C@H](O)CBr` [dibromodulcitol]: the “drug accumulation” value with mice [1] is given as 62%. For the same molecule, the “absorption by the oral route” value in data set [13] was “rapid and fairly complete”. Moreover, the increase in lifespan in the data set with NK/Ly tumor is given as 90%. The mitotic index in the data set on HeLa cell cultures (10-μg dose, untreated control 2.9%) is 0. The “effect on the tumor” value in the data set on Ehrlich ascites tumor (doses equitoxic to 0.75 mg/kg dianhydrogalactitol) is “no effects”. In addition, the solubility in water entry in data set [14] was “hardly soluble in water”. Besides, the prolongation of lifespan in the data set on L1210 leukemia is 40%. Besides, the “concentration giving 50 percent survival (cloning efficiency)” value in the data set on Barle's L cells is 75 µg/mL. Further, the relative effectiveness result with Harding-Passey melanoma is “more effective than dianhydrogalactitol”.

For `CS(=O)(=O)OC[C@@H](O)[C@@H](O)[C@H](O)[C@H](O)COS(C)(=O)=O` [mannitol myleran], the “drug accumulation” value in the data set on mice [1] is reported as 45%.
